Source: patent US20220331303A1, “USE OF AN OREXIN 2 RECEPTOR AGONIST FOR THE TREATMENT OF EXCESSIVE SLEEPINESS” (Takeda Pharmaceutical Company Limited, priority 2019, published 2022)

What was measured:
Assay type in all cases: in vivo, human
[1] = system: subjects with obstructive sleep apnea; assay: MWT in subjects with OSA experiencing EDS despite CPAP; settings: single 9-hour IV infusion
Experimental: The treatment periods began on Day 1 of Treatment Period 1 (Study Day 1) with Treatment Periods 2 and 3 commencing on Study Days 3 and 5, respectively. In the morning of Day 1 of Treatment Period 1, eligible subjects were randomized to 1 of the 6 sequence groups as listed in Table 36. After randomization, the subject was dosed in 3 treatment periods according to the order defined by the sequence group to which he/she was randomized. On Day 1 of each treatment period, Compound A or placebo was administered as a single 9-hour IV infusion commencing at approximately 08:00. The infusion was terminated at approximately 17:00. On Day 1 of each treatment period, four 40-minute maintenance of wakefulness test (MWT) sessions was performed at 2, 4, 6, and 8 hours after the start of the infusion. Subjects were required to stay awake in between the MWT sessions.
On Day 1 of Treatment Period 1, all eligible subjects were randomized and received the first dose of study drug. Compound A or placebo was administered as a single 9-hour IV infusion commencing at approximately 08:00. […] Blood samples for determination of Compound A plasma concentrations were collected predose and at specified time points postdose, Safety assessments were recorded. During the study, AEs were recorded, clinical laboratory tests, vital signs, and safety ECGs were obtained. […]

[2] = system: patients with NT2; assay: Safety/tolerability of multiple IV doses in patients with NT2
Experimental: (§1) The purpose of the study was to evaluate the safety, tolerability, pharmacokinetics and pharmacodynamics of Compound A after multiple days of IV administration in patients with NT2. NT2 patients were evaluated in Cohort C1 and C2 (Table 30). Compound A or placebo were administered via IV infusion over 9 hours once daily for 7 days. A total of 14 patients with NT2 were treated with Compound A or placebo (5, 4, and 5 subjects in the placebo, Compound A 44 mg, and Compound A 112 mg groups, respectively). In this part, potential efficacy of Compound A was evaluated with MWT, ESS, KSS, night-time PSG (NPSG), and PGI-C as an exploratory PD assessment.

[3] = Multiple-dose plasma PK of IV Compound A in patients with NT2
Experimental: as §1
Blood samples used for PK analysis of Compound A was collected according to Table 31. See also FIG. 10 for whole schedules of study procedures.

[4] = multiple IV administrations of up to 112 mg, NT2 patients

COC(=O)N1CCC[C@H](NS(C)(=O)=O)[C@@H]1CO[C@H]1CC[C@@H](c2ccccc2)CC1 [Compound A, methyl (2R,3S)-3-((methylsulfonyl)amino)-2-(((cis-4-phenylcyclohexyl)oxy)methyl)piperidine-1-carboxylate]
Mean placebo-adjusted increase in sleep latency in the MWT ([1]; Compound A 44 mg): 22 min
Mean placebo-adjusted increase in sleep latency in the MWT ([1]; Compound A 112 mg): 28 min
Number of TEAE related to BP (blood pressure increased) ([2]; Compound A 112 mg group, mild intensity): 1
SAE / TEAE leading to study drug discontinuation [2, 4]: no SAE, and no TEAE leading to study drug discontinuation
Safety and tolerability [2, 4]: safe and well tolerated
Plasma Concentration Mean ([3]; Cmpd A 44 mg, 0.17 Hour after End of Infusion at Day 1): 45.48 ng/mL
Plasma Concentration Mean ([3]; Cmpd A 44 mg, 0.5 Hour after End of Infusion at Day 1): 33.98 ng/mL
Plasma Concentration Mean ([3]; Cmpd A 44 mg, 2 Hours after End of Infusion at Day 1): 16.33 ng/mL
Plasma Concentration Mean ([3]; Cmpd A 44 mg, 6 Hours after End of Infusion at Day 1): 5.020 ng/mL
Plasma Concentration Mean ([3]; Cmpd A 44 mg, 9 Hours Postdose at Day 5): 73.15 ng/mL
Plasma Concentration Mean ([3]; Cmpd A 44 mg, 9 Hours Postdose at Day 6): 65.80 ng/mL
Plasma Concentration Mean ([3]; Cmpd A 44 mg, 10 Hours after End of Infusion at Day 1): 2.515 ng/mL
Plasma Concentration Mean ([3]; Cmpd A 44 mg, 14 Hours after End of Infusion at Day 1): 0.7016 ng/mL
AUCtau D Mean ([3]; Cmpd A 44 mg, Day 1): 14.83 ng·h/mL/mg
Cmax D Mean ([3]; Cmpd A 44 mg, Day 1): 1.685 ng/mL/mg
t½z Mean ([3]; Cmpd A 44 mg, Day 1): 2.708 h
AUCtau D Mean ([3]; Cmpd A 44 mg, Day 7): 15.00 ng·h/mL/mg
Cmax D Mean ([3]; Cmpd A 44 mg, Day 7): 1.745 ng/mL/mg
PTR Mean ([3]; Cmpd A 44 mg, Day 7): 202.0
UCtau Geo Mean ([3]; Cmpd A 44 mg, Day 7): 657.1 ng·h/mL
UCtau Mean ([3]; Cmpd A 44 mg, Day 7): 660.0 ng·h/mL
t½z Mean ([3]; Cmpd A 44 mg, Day 7): 2.643 h
Plasma Concentration Mean ([3]; Cmpd A 44 mg, Predose at Day 1): 0.000 ng/mL
Plasma Concentration Mean ([3]; Cmpd A 44 mg, Predose at Day 5): 0.9273 ng/mL
Plasma Concentration Mean ([3]; Cmpd A 44 mg, Predose at Day 6): 0.7163 ng/mL
Plasma Concentration Mean ([3]; Cmpd A 44 mg, Predose at Day 7): 0.5635 ng/mL
Plasma Concentration Mean ([3]; Cmpd A 112 mg, 0.17 Hour after End of Infusion at Day 1): 81.03 ng/mL
Plasma Concentration Mean ([3]; Cmpd A 112 mg, 0.5 Hour after End of Infusion at Day 1): 75.26 ng/mL
Plasma Concentration Mean ([3]; Cmpd A 112 mg, 2 Hours after End of Infusion at Day 1): 32.46 ng/mL
Plasma Concentration Mean ([3]; Cmpd A 112 mg, 6 Hours after End of Infusion at Day 1): 12.03 ng/mL
Plasma Concentration Mean ([3]; Cmpd A 112 mg, 10 Hours after End of Infusion at Day 1): 5.610 ng/mL
AUCtau D Mean ([3]; Cmpd A 112 mg, Day 1): 13.52 ng·h/mL/mg
Cmax D Mean ([3]; Cmpd A 112 mg, Day 1): 1.540 ng/mL/mg
t½z Mean ([3]; Cmpd A 112 mg, Day 1): 2.800 h
AUCtau D Mean ([3]; Cmpd A 112 mg, Day 7): 13.68 ng·h/mL/mg
Cmax D Mean ([3]; Cmpd A 112 mg, Day 7): 1.550 ng/mL/mg
PTR Mean ([3]; Cmpd A 112 mg, Day 7): 201.1
UCtau Geo Mean ([3]; Cmpd A 112 mg, Day 7): 1519 ng·h/mL
UCtau Mean ([3]; Cmpd A 112 mg, Day 7): 1534 ng·h/mL
t½z Mean ([3]; Cmpd A 112 mg, Day 7): 3.136 h
Plasma Concentration Mean ([3]; Cmpd A 112 mg, Predose at Day 1): 0.000 ng/mL
Drug accumulation ([3]; QD 9-hour IV infusion daily for 7 days): no drug accumulation was observed
Dose proportionality of mean plasma systemic exposures ([3]; daily 9-hour IV infusions, 44 and 112 mg): generally increased in a dose proportional manner
Cmax ([3]; human, plasma, intravenous, 44 mg, Cmax Geo Mean, Cmpd A 44 mg, Day 7): 76.4 ng/mL
concentration at 1 h ([3]; human, plasma, intravenous, 44 mg, Cmpd A 44 mg, 1 Hour Postdose at Day 1): 47.4 ng/mL
concentration at 2 h ([3]; human, plasma, intravenous, 44 mg, Cmpd A 44 mg, 2 Hours Postdose at Day 1): 59 ng/mL
concentration at 4 h ([3]; human, plasma, intravenous, 44 mg, Cmpd A 44 mg, 4 Hours Postdose at Day 1): 74.1 ng/mL
concentration at 6 h ([3]; human, plasma, intravenous, 44 mg, Cmpd A 44 mg, 6 Hours Postdose at Day 1): 50 ng/mL
concentration at 9 h ([3]; human, plasma, intravenous, 44 mg, Cmpd A 44 mg, 9 Hours Postdose at Day 1, read-out: Plasma Concentration Mean): 69 ng/mL
Tmax ([3]; human, plasma, intravenous, 44 mg, Cmpd A 44 mg, Day 1): 3.88 h
